{
  "source": "patent US20210353633A1",
  "about": "“CYCLODEXTRIN-BASED FORMULATION OF A BCL-2 INHIBITOR” (LES LABORATOIRES SERVIER, priority 2018, published 2021)",
  "assay_type_in_all_cases": "physicochemical",
  "key": {"[1]": {"experiment": "pH, appearance and precipitation pH of solutions diluted in 250 mL of glucose 5% solution (G5)", "details": "for pH: hydrogen sulfate salt in Cavitron W7H5; for Precipitation pH (by light obscuration technique) / Precipitation pH (by visual observation): pH increased with NaOH 0.01N", "procedure": "The Compound A used is in the form of a hydrogen sulfate salt. Invisible particulate contamination of the solutions was also controlled by light obscuration technique.\nA mother solution containing a dose of 200 mg/mL of Cavitron™ W7H5 and 20 mg/mL of Compound A (expressed for the free base) is prepared by dissolving a lyophilisate as described in Example 5 in the necessary amount of water. The solution so obtained is then diluted by means of glucose 5% solution (G5).\nThe pH of the solutions obtained is measured and the appearance of the solutions is observed. The pH is increased using NaOH 0.01N solution until a precipitation is observed."}, "[2]": {"experiment": "pH of precipitation by addition of NaOH to a HP-β-cyclodextrin solution (Example 9)", "details": "hydrogen sulfate salt in Cavitron W7H5 solution; 0.5M NaOH added; visual; duplicate", "procedure": "The objective of this study is to define the pH of precipitation of Compound A (hydrogen sulfate salt) from HP-β-cyclodextrin solution to better understand the risk of precipitation and select the pH of the drug product.\nWeigh 10 g of Cavitron™ W7H5 in a 50 mL flask. Add 26 g of water and then solubilize the Cavitron™ W7H5 under magnetic agitation. Carefully add 1.14 g of Compound A under magnetic agitation and then add 6.5 mL of water. Solubilize Compound A using magnetic agitation at 60° C. Once totally solubilized, cool down the solution at room temperature then rinse the upper edges of the flask with 0.5 mL of water. The total amount of water added is […].\nSlowly add 0.5M NaOH solution under continuous agitation (add 100 μL at each addition step) up to a precipitation is visually observed. The experiment was performed in duplicate. The precipitated solid is separated and dried to be analyzed by RMN, XRPD, XRF, and HPLC."}, "[3]": {"experiment": "Solubility test of Compound A, H2SO4 in a HP-β-cyclodextrin as a function of the pH", "details": "for solubility at 24 h: aqueous HP-β-cyclodextrin (Cavitron W7HP5) solution, aqueous with cosolvent or surfactant or cyclodextrin, thermodynamic from solid, read-out: Solubility after 24 h", "procedure": "The solubility of ‘Compound A, H2SO4’ was studied in the presence of a HP-β-cyclodextrin as a function of the pH.\n10 g of the cyclodextrin studied (Cavitron™ W7HP5) are placed in a 50 mL graduated flask. 40 mL of water are then added. The whole is placed under magnetic stirring. The volume is then made up with water to 50 mL.\nApproximately 856.7 mg of ‘Compound A, H2SO4’ are weighed. 30 mL of the medium containing the carrier to be tested, that is to say Cavitron™ W7HP5, are then added. The whole is placed under magnetic stirring for 24 hours. The suspension so obtained is passed through a 0.2 μm filter (PALL—PES membrane—diameter 25 mm) before being analysed by HPLC.\nIn other tests, the pH of the solution is then modified by means of 0.1 N NaOH solution until values of 4 and 8.8 are reached, before the analysis by HPLC chromatography is carried out."}, "[4]": {"details": "12 mg of Compound A in 250 mL of G5"}, "[5]": {"details": "25 mg of Compound A in 250 mL of G5"}, "[6]": {"details": "50 mg of Compound A in 250 mL of G5"}, "[7]": {"details": "100 mg of Compound A in 250 mL of G5"}, "[8]": {"details": "250 mg of Compound A in 250 mL of G5"}, "[9]": {"details": "500 mg of Compound A in 250 mL of G5"}, "[10]": {"details": "1000 mg of Compound A in 250 mL of G5"}},
  "note": "Like-named read-outs stand apart in the source and are kept apart here.",
  "data": [
    {"compound": "Cc1c(N(C(=O)c2cc(-c3cc(Cl)ccc3C(=O)N3Cc4ccccc4C[C@H]3CN3CCOCC3)n(C)c2C)c2ccc(O)cc2)cc(C#N)n1C", "note": "[Compound A, 5-(5-chloro-2-{[(3S)-3-(morpholin-4-ylmethyl)-3,4-dihydroisoquinolin-2(1H)-yl]carbonyl}phenyl)-N-(5-cyano-1,2-dimethyl-1H-pyrrol-3-yl)-N-(4-hydroxyphenyl)-1,2-dimethyl-1H-pyrrole-3-carboxamide]", "values": [
      {"measurement": "Appearance of the solution after 15 min", "setting": "[1]; [4]", "result": "clear"},
      {"measurement": "pH", "setting": "[1]; [4]", "result": "3.7-4.310"},
      {"measurement": "Precipitation pH (by light obscuration technique)", "setting": "[1]; [4]", "result": 5.4},
      {"measurement": "Precipitation pH (by visual observation)", "setting": "[1]; [4]", "result": 8.609},
      {"measurement": "Appearance of the solution after 15 min", "setting": "[1]; [5]", "result": "clear"},
      {"measurement": "pH", "setting": "[1]; [5]", "result": "3.9-4.240"},
      {"measurement": "Precipitation pH (by light obscuration technique)", "setting": "[1]; [5]", "result": 4.8},
      {"measurement": "Precipitation pH (by visual observation)", "setting": "[1]; [5]", "result": 5.220},
      {"measurement": "Appearance of the solution after 15 min", "setting": "[1]; [6]", "result": "clear"},
      {"measurement": "pH", "setting": "[1]; [6]", "result": "3.8-4.158"},
      {"measurement": "Precipitation pH (by light obscuration technique)", "setting": "[1]; [6]", "result": 4.5},
      {"measurement": "Precipitation pH (by visual observation)", "setting": "[1]; [6]", "result": 5.143},
      {"measurement": "Appearance of the solution after 15 min", "setting": "[1]; [7]", "result": "clear"},
      {"measurement": "pH", "setting": "[1]; [7]", "result": "3.8-4.033"},
      {"measurement": "Precipitation pH (by light obscuration technique)", "setting": "[1]; [7]", "result": 4.3},
      {"measurement": "Precipitation pH (by visual observation)", "setting": "[1]; [7]", "result": 4.872},
      {"measurement": "Appearance of the solution after 15 min", "setting": "[1]; [8]", "result": "clear"},
      {"measurement": "pH", "setting": "[1]; [8]", "result": "3.7-3.809"},
      {"measurement": "Precipitation pH (by light obscuration technique)", "setting": "[1]; [8]", "result": 4.1},
      {"measurement": "Precipitation pH (by visual observation)", "setting": "[1]; [8]", "result": 4.388},
      {"measurement": "Appearance of the solution after 15 min", "setting": "[1]; [9]", "result": "clear"},
      {"measurement": "pH", "setting": "[1]; [9]", "result": "3.5-3.613"},
      {"measurement": "Precipitation pH (by light obscuration technique)", "setting": "[1]; [9]", "result": 4.0},
      {"measurement": "Precipitation pH (by visual observation)", "setting": "[1]; [9]", "result": 4.378},
      {"measurement": "Appearance of the solution after 15 min", "setting": "[1]; [10]", "result": "clear"},
      {"measurement": "pH", "setting": "[1]; [10]", "result": "3.3-3.401"},
      {"measurement": "Precipitation pH (by light obscuration technique)", "setting": "[1]; [10]", "result": 4.0},
      {"measurement": "Precipitation pH (by visual observation)", "setting": "[1]; [10]", "result": 4.254},
      {"measurement": "precipitation when diluted in G5 solution", "setting": "[1]; concentrations between 12 and 1000 mg/250 mL of G5 solution, solubilised by Cavitron W7H5 solution", "result": "do not precipitate"},
      {"measurement": "pH at which drug precipitation was observed", "setting": "[2]", "result": 4.27}
    ]},
    {"compound": "Cc1c(N(C(=O)c2cc(-c3cc(Cl)ccc3C(=O)N3Cc4ccccc4C[C@H]3CN3CCOCC3)n(C)c2C)c2ccc(O)cc2)cc(C#N)n1C", "note": "[Compound A, H2SO4, 5-(5-chloro-2-{[(3S)-3-(morpholin-4-ylmethyl)-3,4-dihydroisoquinolin-2(1H)-yl]carbonyl}phenyl)-N-(5-cyano-1,2-dimethyl-1H-pyrrol-3-yl)-N-(4-hydroxyphenyl)-1,2-dimethyl-1H-pyrrole-3-carboxamide]", "values": [
      {"measurement": "pH from which a precipitate is visually observed", "setting": "[3]; Cavitron W7HP5 200 mg/mL, pH raised with 0.1 N NaOH", "result": 3.2},
      {"measurement": "solubility at 24 h", "setting": "[3]; Cavitron W7HP5 200 mg/mL + 0.1N NaOH, pH 4.01", "result": 17.1, "unit": "mg/mL"},
      {"measurement": "solubility at 24 h", "setting": "[3]; Cavitron W7HP5 200 mg/mL + 0.1N NaOH, pH 8.8", "result": 0.99, "unit": "mg/mL"},
      {"measurement": "solubility at 24 h", "setting": "[3]; Cavitron W7HP5 200 mg/mL, pH 1.86 (without adjustment)", "result": 21.6, "unit": "mg/mL"}
    ]}
  ]
}
